In patent US20240293416A1, “TREATMENT OF LIVER DISORDERS WITH A THR-ß AGONIST” (Terns Pharmaceuticals, Inc., priority 2021, published 2024):
Values joined by “and” are separate entries in the source; they are usually repeats but may differ in a detail not shown here. Identical values can stand only once.

Assays:
[1] = Multiple ascending dose trial: adverse event and safety monitoring; format: in vivo, human; details: for AEs by relationship to drug: Not related / AEs by relationship to drug: Possibly related / AEs by relationship to drug: Related / AEs by relationship to drug: Unlikely related / Any AE, all CTCAE grades / Grade 1 / Grade 2 or higher / Serious AEs: N = 6
Protocol: A multiple-ascending dose clinical trial of Compound 1 was performed.

[2] = system: biopsy-confirmed DIO-NASH mice; experiment: DIO-GAN NASH mice: liver enzymes, plasma and liver lipids, CK18 M30; format: in vivo, C57BL/6JRj mice; details: for plasma triglycerides (TG): end of study
Excerpt: (§1) C57BL/6JRj male mice (n=138) were fed the Gubra Amylin NASH (GAN) diet (40% fat, 22% fructose, 2% cholesterol [D09100310, Research Diets]) or lean chow diet for 35 weeks before treatment start. Prior to treatment all animals underwent liver biopsy for histological confirmation (steatosis score ≥2 and fibrosis stage ≥1) and stratification using the nonalcoholic fatty liver disease (NAFLD) activity scoring (NAS) and fibrosis staging system. The diet-induced obese mice on GAN diet (DIO-GAN) were randomized to 8 treatment groups (Table 16) based on percent-area of picrosirius red (PSR) staining. […] Vehicle-dosed lean chow-fed controls served as healthy controls (n=10). Mice were maintained on their respective diets (GAN or lean chow) for the duration of the study. Within-subject comparisons (pre-vs. post-treatment) were performed for liver biopsy histopathological scores. Terminal quantitative endpoints included plasma/liver biochemistry, liver histomorphometry, and liver transcriptomic analysis by RNAseq.
Terminal blood was harvested by cardiac puncture from mice anesthetized with isoflurane (2-3%), mixed with anticoagulant, and placed at 4 C prior to centrifugation at 3000×g for 10 minutes. Plasma supernatants were transferred to new tubes and immediately frozen on dry ice and stored at −80 C. Alanine transaminase (ALT), Aspartate transaminase (AST), Alkaline phosphatase (ALP), Triglycerides (TGs), Total Cholesterol (TC), High-density lipoprotein (HDL-c), and Low-density lipoprotein (LDL-c) were measured using commercial kits (Roche Diagnostics) on the Cobas c 501 autoanalyzer according to manufacturer's instructions. Cytokeratin 18 M30 (CK18 M30) was measured from plasma using a commercial ELISA kit (Cusabio) according to the manufacturer's instructions.
Liver samples were homogenized and TGs and TC was extracted in 5% NP-40 by heating (2×) at 90 C. Samples were centrifuged and the TG and TC content was measured in the supernatant using commercial kits (Roche Diagnostics) on the Cobas c 501 autoanalyzer, according to the manufacturer's instructions.

[3] = system: biopsy-confirmed DIO-NASH mice; experiment: DIO-GAN NASH mice: liver histology (NAS, fibrosis, IHC); format: in vivo, C57BL/6JRj mice
Excerpt: as §1
Formalin-fixed paraffin-embedded (FFPE) liver biopsies were prepared by placing liver samples into 10% neutral buffered formalin for ˜24 hours and then transferred to 70% ethanol prior to storage at 4 C. FFPE were placed in the Histokinette to infiltrate prior to embedding in blocks. Biopsy tissues were then cut at 3 μm using a microtome and sections were mounted on slides. Liver sections were stained with Hematoxylin and Eosin (H&E) to assess steatosis, inflammation, and ballooning, and PSR to assess fibrosis. Additionally, slides were processed to detect type I collagen (Col1a1), galectin-3 (Gal-3), and smooth muscle actin (α-SMA) protein expression by immunohistochemistry (IHC). For H&E staining, slides were incubated in Mayer's Hematoxylin (Dako), washed with tap water, stained in Eosin Y solution (Sigma-Aldrich), dehydrated, and coverslipped. For PSR, slides were incubated in Weigert's iron hematoxylin (Sigma-Aldrich), washed in tap water, stained in Picro-sirius red (Sigma-Aldrich), and washed twice in acidified water. Excess water was removed by shaking the slides and the slides were then dehydrated with ethanol, cleared in xylene, and cover-slipped. The NAS and fibrosis stage were scored as described previously (Kleiner et al. 2005). NAS represents the unweighted sum of steatosis, inflammation, and ballooning scores and ranges for 0-8 (Table 17); fibrosis stage ranges from 0 (no fibrosis) to 4 (cirrhosis). For detection of Col1a1, Gal-3 and α-SMA, IHC was performed by standard procedures. Briefly, after antigen retrieval and blocking of endogenous peroxidase activity, slides were incubated with primary antibody (Col1a1: Southern Biotech, Cat. 1310-01; Gal-3: Biolegend, Cat. 125402; α-SMA: Abcam Cat. Ab124964). Primary antibody was detected using a polymeric HRP-linker antibody conjugate. Primary antibody was visualized with DAB as chromogen. Finally, sections were counterstained in hematoxylin and cover-slipped.
The NAFLD Activity Score (NAS) was used to assess the histological effects of treatment. NAS is defined as the unweighted sum of steatosis, inflammation, and ballooning histological scores and can range from 0-8. NAS was determined for each animal before (baseline) and after 12-weeks of treatment at the end of study. NAS was well balanced across treatment groups with an NAS range of 5-6 at baseline in most mice (FIG. 39A). […] In addition, the magnitude of NAS improvement was greater in the combination treatment groups.

[4] = 14-day daily dosing up to 10 mg
[5] = PO QD 12 weeks, Compound 1-low, 0.3 mg/kg
[6] = PO QD 12 weeks, Compound 1-med, 2 mg/kg
[7] = PO QD 12 weeks, Compound 1 Low, 0.3 mg/kg
[8] = PO QD 12 weeks, Compound 1 Med, 2 mg/kg
[9] = PO QD 12 weeks, Compound 2 10 mg/kg alone or plus Compound 1 0.3/2/10 mg/kg (Combo Low/Med/High)
[10] = PO QD 12 weeks, Compound 2 10 mg/kg alone or plus Compound 1 0.3/2/10 mg/kg (Combo-low/med/high)

Structure (SMILES): N#Cc1nn(-c2cc(Cl)c(Oc3n[nH]c(=O)c4ccccc34)c(Cl)c2)c(=O)[nH]c1=O [Compound 1, 2-(3,5-dichloro-4-((4-oxo-3,4-dihydrophthalazin-1-yl)oxy)phenyl)-3,5-dioxo-2,3,4,5-tetrahydro-1,2,4-triazine-6-nitrile]
- AEs by relationship to drug: Not related ([1]; 3 mg once daily for 14 days): 1 (16.7%) n (%)
- AEs by relationship to drug: Possibly related ([1]; 3 mg once daily for 14 days): 0 n (%)
- AEs by relationship to drug: Related ([1]; 3 mg once daily for 14 days): 0 n (%)
- AEs by relationship to drug: Unlikely related ([1]; 3 mg once daily for 14 days): 0 n (%)
- Any AE, all CTCAE grades ([1]; 3 mg once daily for 14 days): 1 (16.7%) n (%)
- Grade 1 ([1]; 3 mg once daily for 14 days): 1 (16.7%) n (%)
- Grade 2 or higher ([1]; 3 mg once daily for 14 days): 0 n (%)
- Serious AEs ([1]; 3 mg once daily for 14 days): 0 n (%)
- AEs by relationship to drug: Not related ([1]; 6 mg once daily for 14 days): 0 n (%)
- AEs by relationship to drug: Possibly related ([1]; 6 mg once daily for 14 days): 1 (16.7%) n (%)
- AEs by relationship to drug: Related ([1]; 6 mg once daily for 14 days): 0 n (%)
- AEs by relationship to drug: Unlikely related ([1]; 6 mg once daily for 14 days): 0 n (%)
- Any AE, all CTCAE grades ([1]; 6 mg once daily for 14 days): 1 (16.7%) n (%)
- Grade 1 ([1]; 6 mg once daily for 14 days): 1 (16.7%) n (%)
- Grade 2 or higher ([1]; 6 mg once daily for 14 days): 0 n (%)
- Serious AEs ([1]; 6 mg once daily for 14 days): 0 n (%)
- AEs by relationship to drug: Not related ([1]; 10 mg once daily for 14 days): 2 (33.3%) n (%)
- AEs by relationship to drug: Possibly related ([1]; 10 mg once daily for 14 days): 0 n (%)
- AEs by relationship to drug: Related ([1]; 10 mg once daily for 14 days): 0 n (%)
- AEs by relationship to drug: Unlikely related ([1]; 10 mg once daily for 14 days): 0 n (%)
- Any AE, all CTCAE grades ([1]; 10 mg once daily for 14 days): 2 (33.3%) n (%)
- Grade 1 ([1]; 10 mg once daily for 14 days): 2 (33.3%) n (%)
- Grade 2 or higher ([1]; 10 mg once daily for 14 days): 0 n (%)
- Serious AEs ([1]; 10 mg once daily for 14 days): 0 n (%)
- ALT increase to ≥2×ULN ([1]; 14-day daily dosing): no treated subject
- ECGs, cardiac biomarkers, or other clinical lab tests ([1]; 14-day daily dosing): No remarkable changes
- TSH or free T3 ([1]; 14-day daily dosing): without clear change
- free T4 ([1]; 14-day daily dosing): declined in dose-dependent fashion
- free testosterone ([1]; 14-day daily dosing): no significant change in free levels
- total testosterone ([1]; 14-day daily dosing): Dose-dependent total testosterone increases
- Heart rate and blood pressure [1, 4]: remained stable throughout the study
- grade of AEs [1, 4]: Grade 1
- tolerability [1, 4]: overall well-tolerated
- GGT ([1]; 14-day daily dosing, values remaining below ULN): Dose-dependent GGT increases
- plasma triglycerides (TG) ([2]; Compound 1-high, 10 mg/kg): significantly reduced
- ALT levels relative to DIO-GAN vehicle control ([2]; single agent Compound 1 low, med, and high (0.3, 2, 10 mg/kg)): significantly lowered
- NAFLD Activity Score (NAS): No change, % of mice [3, 5]: 56.25%
- NAS: Improving 1-pt, % of mice [3, 5]: 31.25%
- NAS: Improving Total (≥1-pt), % of mice [3, 5]: 31% and 31.25%
- NAS: Improving ≥2-pt, % of mice [3, 5]: 0%
- NAS: Worsening ≥1-pt, % of mice [3, 5]: 12.5%
- NAS: Improving 1-pt, % of mice [3, 6]: 20%
- NAS: Improving Total (≥1-pt), % of mice [3, 6]: 27%
- NAS: Improving ≥2-pt, % of mice [3, 6]: 7% and 6.7%
- NAS: Worsening ≥1-pt, % of mice [3, 6]: 0%
- Histological Steatosis Score: No change, % of mice [3, 7]: 68.75%
- Liver Fibrosis stage: Improving, % of mice [3, 7]: 6.25%
- Liver Fibrosis stage: No change, % of mice [3, 7]: 62.5%
- Lobular Inflammation: Improving, % of mice [3, 7]: 6.25%
- Lobular Inflammation: Worsening, % of mice [3, 7]: 25%
- Steatosis Score: Improving 1-pt, % of mice [3, 7]: 25%
- Steatosis Score: Improving Total, % of mice [3, 7]: 31%
- Steatosis Score: Improving ≥2-pt, % of mice [3, 7]: 6.25%
- Liver Fibrosis stage: No change, % of mice [3, 8]: 60%
- Lobular Inflammation: Improving, % of mice [3, 8]: 6.7%
- Lobular Inflammation: Worsening, % of mice [3, 8]: 20%
- Steatosis Score: Improving 1-pt, % of mice [3, 8]: 40%
- Steatosis Score: Improving Total, % of mice [3, 8]: 47%
- Steatosis Score: Improving ≥2-pt, % of mice [3, 8]: 6.7%
- α-SMA (IHC) ([3]; end of study, Compound 1-low and Compound 1-med (0.3 and 2 mg/kg)): Numeric reductions

Structure (SMILES): Cn1cc(C(=O)O)c2ccc(C3CCC(OCc4c(-c5c(Cl)cccc5Cl)noc4C4CC4)CC3)cc21 (stereo not drawn) [Compound 2]
- plasma triglycerides (TG) ([2]; Compound 2 10 mg/kg and combinations): significantly reduced
- Histological Steatosis Score: No change, % of mice [3, 9]: 18.75%
- Liver Fibrosis stage: Improving, % of mice [3, 9]: 6.25%
- Liver Fibrosis stage: No change, % of mice [3, 9]: 56.25%
- Liver Fibrosis stage: Worsening, % of mice [3, 9]: 37.5%
- Lobular Inflammation: Improving, % of mice [3, 9]: 0%
- Lobular Inflammation: No change, % of mice [3, 9]: 68.75%
- Lobular Inflammation: Worsening, % of mice [3, 9]: 31.25%
- Steatosis Score: Improving 1-pt, % of mice [3, 9]: 81.25%
- Steatosis Score: Improving Total, % of mice [3, 9]: 81% and 81.25%
- Steatosis Score: Improving ≥2-pt, % of mice [3, 9]: 0%
- NAFLD Activity Score (NAS): No change, % of mice [3, 10]: 43.7%
- NAS: Improving 1-pt, % of mice [3, 10]: 56.25%
- NAS: Improving Total (≥1-pt), % of mice [3, 10]: 56% and 56.25%
- NAS: Improving ≥2-pt, % of mice [3, 10]: 0%
- NAS: Worsening ≥1-pt, % of mice [3, 10]: 0%
- α-SMA (IHC) ([3]; end of study, Compound 2 10 mg/kg, combinations per Table 16): Numeric reductions
- Gal-3 expression in the liver (IHC) relative to DIO-GAN vehicle control ([3]; end of study, doses per Table 16): lower levels of Gal-3 expression
